Source: patent US20220315624A1, “THIOSTREPTON ANALOGS AND METHODS OF MAKING AND USING SAME” (YALE UNIVERSITY, priority 2019, published 2022)
Values after ≈ are worked out from the molar mass of the structure shown.

How the values were obtained:
[1] = Aqueous solubility analysis in MOPS buffer; format: physicochemical; details: aqueous 10 mM MOPS buffer, thermodynamic from solid; after 24 hours in 10 mM aqueous MOPS buffer, pH 7.2
Description: A 2 dram vial was loaded with ˜0.5 mg of a thiostrepton derivative and suspended in ˜4 mL of aqueous 10 mM MOPS buffer (pKa 7.2). The suspension was stirred vigorously for 24 h to ensure equilibration, then filtered through a […] centrifuge filtration unit. A 3.0 mL aliquot was concentrated, and the dried residue was diluted with 0.30 mL of 1:1 1,4-dioxane/H2O (10× original concentration necessitated by detection limits). The total UV absorbance (200-300 nm) was measured in triplicate by UPLC runs with a photodiode array detector. A calibration curve for each compound was created using data points from 3 trials each of concentrations in 1:1 1,4-dioxane/H2O ranging from […]. These concentrations were plotted against their respective average absorbances. The experimental concentration of each compound was calculated by dividing the found μg/mL value by the residue concentration factor of 10 to yield the actual solubility value.

E. coli ATCC 25922 = assay: MIC broth microdilution; format: cell-based; details: Escherichia coli, ATCC25922; E. coli ATCC 25922; CAMHB; read-out: MIC
Description: (§1) Twenty-four test agents were shipped to Micromyx and stored at −20° C. until assayed. The compounds were dissolved in 100% DMSO at 6.46 mg/mL prior to testing. Comparator drugs were supplied by Micromyx and were handled as described below:
(§2) The test organisms for the assay were recent clinical isolates or reference strains acquired from the American Type Culture Collection (ATCC; Manassas, Va.). Upon receipt, the isolates were streaked onto Trypticase Soy Agar II+5% sheep blood (TSAB). Colonies were harvested from the plates and a cell suspension was prepared in Trypticase Soy Broth containing cryoprotectant. Aliquots were then frozen at −80° C. Prior to the assay, the frozen seeds of all bacterial isolates to be tested were thawed and streaked for isolation onto TSAB (BD/BBL, Sparks, Md.; Lot No. 9011894), and were incubated overnight at 35° C.
(§3) The test medium for all isolates was cation-adjusted Mueller Hinton broth (CAMHB; BD/BBL; Lot No. 8190586). CAMHB (Cation Adjusted Mueller Hinton Broth) was supplemented with 3% (v/v) lysed horse blood (LHB; Hemostat, Dixon, Calif.; Lot No. 474990) for the testing of streptococci.
(§4) MIC values were determined using a broth microdilution method as recommended by CLSI. Automated liquid handlers (Multidrop 384, Labsystems, Helsinki, Finland; Biomek 2000 and Biomek F/X, Beckman Coulter, Fullerton Calif.) were used to conduct serial dilutions and make liquid transfers.
(§5) The wells of standard 96-well microdilution plates (Costar 3795, Corning Inc., Corning, N.Y.) were filled with 150 μL of the appropriate diluent in columns 2-12 on the Multidrop 384 (DMSO for the thiostrepton analogs, deionized H2O for vancomycin and ceftazidime). These plates were used to prepare the drug “mother plate” which provided the serial drug dilutions for the replicate “daughter plates”. The compounds (300 μL) were dispensed at 101× the highest concentration to be tested into the appropriate row of the “mother plate”. The Biomek 2000 was used to transfer 150 μL of each stock solution from the wells in Column 1 of the mother plate to make ten subsequent 2-fold serial dilutions. The wells of Column 12 contained no drug and served as the organism growth control wells. The daughter plates were loaded with 190 μL of test medium using the Multidrop 384.
(§6) The daughter plates were prepared on the Biomek F/X instrument which transferred […] of drug solution from each well of the mother plate to each corresponding well of each daughter plate in a single step. The wells of the daughter plates ultimately contained 190 μL of media, 2 μL of drug solution, and 10 μL of inoculum prepared as described below. The final concentration of DMSO (if used as a solvent) in the test well was 1%.
(§7) A standardized inoculum of each organism was prepared per CLSI methods. A suspension of organisms from a fresh plate was prepared in CAMHB to equal the turbidity of a 0.5 McFarland standard. The suspensions were diluted 1:20 in CAMHB, or in the case of streptococci CAMHB with LHB. The inoculum for each organism was dispensed into sterile reservoirs divided by length (Beckman Coulter), and the Biomek 2000 was used to inoculate the plates. Daughter plates were placed on the Biomek 2000 work surface reversed so that inoculation took place from low to high drug concentration. The Biomek 2000 delivered 10 μL of standardized inoculum into each well. These dilutions yielded a final cell concentration in the daughter plates of approximately 5.0×10^5 CFU/mL.
(§8) Plates were stacked 3 high, covered with a lid on the top plate, placed in plastic bags, and incubated at 35° C. for 16-20 hr for all organisms except streptococci which were incubated for 20-24 hr. Following incubation, the microplates were removed from the incubator and viewed from the bottom using a plate viewer. The MIC was read and recorded as the lowest concentration of drug that inhibited visible growth of the organism. […]

[2] = test system: E. faecalis ATCC 29212 VSE; assay: MIC broth microdilution; format: cell-based; details: Enterococcus faecalis, ATCC29212; E. faecalis ATCC 29212 VSE; CAMHB; read-out: MIC
Description: as §1, §2, §3, §4, §5, §6, §7, §8

E. faecalis MMX 486 VRE = assay: MIC broth microdilution; format: cell-based; details: Enterococcus faecalis; E. faecalis MMX 486 VRE; CAMHB; read-out: MIC
Description: as §1, §2, §3, §4, §5, §6, §7, §8

E. faecium MMX 485 VRE = assay: MIC broth microdilution; format: cell-based; details: Enterococcus faecium; E. faecium MMX 485 VRE; CAMHB; read-out: MIC
Description: as §1, §2, §3, §4, §5, §6, §7, §8

E. faecium MMX 708 VSE = assay: MIC broth microdilution; format: cell-based; details: Enterococcus faecium, MMX708VSE; E. faecium MMX 708 VSE; CAMHB; read-out: MIC
Description: as §1, §2, §3, §4, §5, §6, §7, §8

[3] = test system: S. aureus ATCC 29213 MSSA; assay: MIC broth microdilution; format: cell-based; details: Staphylococcus aureus; S. aureus ATCC 29213 MSSA; CAMHB; read-out: MIC
Description: as §1, §2, §3, §4, §5, §6, §7, §8

S. aureus MMX 8088 MRSA = assay: MIC broth microdilution; format: cell-based; details: Staphylococcus aureus; S. aureus MMX 8088 MRSA; CAMHB; read-out: MIC
Description: as §1, §2, §3, §4, §5, §6, §7, §8

[4] = test system: S. pneumoniae ATCC 49619 PISP; assay: MIC broth microdilution; format: cell-based; details: Streptococcus pneumoniae, ATCC49619, 20 h; S. pneumoniae ATCC 49619 PISP; CAMHB with 3% lysed horse blood; read-out: MIC
Description: as §1, §2, §3, §4, §5, §6, §7, §8

S. pyogenes ATCC 19615 = assay: MIC broth microdilution; format: cell-based; details: Streptococcus pyogenes, ATCC19615, 20 h; S. pyogenes ATCC 19615; CAMHB with 3% lysed horse blood; read-out: MIC
Description: as §1, §2, §3, §4, §5, §6, §7, §8

S. aureus isolates = assay: MIC broth microdilution, S. aureus isolates; format: cell-based; details: Staphylococcus aureus; across MSSA and MRSA isolates; read-out: MIC values against S. aureus isolates
Description: as §1, §2, §3, §4, §5, §6, §7, §8

[5] = test system: E. faecalis and E. faecium; assay: MIC broth microdilution, summary over enterococci; format: cell-based; details: across the evaluated enterococci, VSE and VRE
Description: as §1, §2, §3, §4, §5, §6, §7, §8

[6] = Un-inoculated solubility control plate (drug precipitation); format: physicochemical; details: for Precipitation in CAMHB: at 64 μg/mL in CAMHB
Gram-positive cocci = assay: MIC broth microdilution, overall summary; format: cell-based; details: summary of MIC testing
Description: as §1, §2, §3, §4, §5
The daughter plates were prepared on the Biomek F/X instrument which transferred […] of drug solution from each well of the mother plate to each corresponding well of each daughter plate in a single step. […]
Plates were stacked 3 high, covered with a lid on the top plate, placed in plastic bags, and incubated at 35° C. for 16-20 hr for all organisms except streptococci which were incubated for 20-24 hr. […] The MIC was read and recorded as the lowest concentration of drug that inhibited visible growth of the organism. […]

SMILES	solubility at 24 h [1]	MIC (E. coli ATCC 25922)	MIC [2]	MIC (E. faecalis MMX 486 VRE)	MIC (E. faecium MMX 485 VRE)	MIC (E. faecium MMX 708 VSE)	MIC [3]	MIC (S. aureus MMX 8088 MRSA)	MIC [4]	MIC (S. pyogenes ATCC 19615)	MIC (S. aureus isolates)	MIC values against E. faecalis and E. faecium [5]	MIC ([5]; read-out: MIC values against E. faecalis and E. faecium)	Precipitation in CAMHB [6]	Activity among the evaluated analogs / against evaluated Gram-positive cocci (summary in words) (Gram-positive cocci)	Precipitation in CAMHB in LHB ([6]; at 64 μg/mL in CAMHB in LHB)
C=C(NC(=O)c1csc(C2=N[C@@H]3c4csc(n4)[C@H]4NC(=O)c5csc(n5)[C@H]([C@](C)(O)[C@@H](C)O)NC(=O)C5CSC(=N5)/C(=C/C)NC(=O)[C@H]([C@@H](C)O)NC(=O)c5csc(n5)[C@]3(CC2)NC(=O)[C@H](C)NC(=O)C(=C)NC(=O)[C@H](C)NC(=O)[C@H]([C@@H](C)CC)N[C@@H]2C=Cc3c([C@H](C)O)cc(nc3[C@H]2O)C(=O)O[C@@H]4C)n1)C(=O)NC(=CNC(=O)c1cccc(/C=N/OC)c1)C(N)=O [RJS-11]	< 1 µg/mL	> 64 mg/L	0.5 mg/L (≈ 0.272 µM)	0.25 mg/L (≈ 0.136 µM)	0.25 mg/L (≈ 0.136 µM)	0.25 mg/L (≈ 0.136 µM)	0.5 mg/L (≈ 0.272 µM)	0.5 mg/L (≈ 0.272 µM)	< 0.001 mg/L	< 0.001 mg/L	0.25 to 0.5 mg/L (≈ 0.136 to 0.272 µM)	0.5 mg/L (≈ 0.272 µM)	0.25 mg/L (≈ 0.136 µM)	distinct precipitation	most activity	–
C=C(NC(=O)c1csc(C2=N[C@@H]3c4csc(n4)[C@H]4NC(=O)c5csc(n5)[C@H]([C@](C)(O)[C@@H](C)O)NC(=O)C5CSC(=N5)/C(=C/C)NC(=O)[C@H]([C@@H](C)O)NC(=O)c5csc(n5)[C@]3(CC2)NC(=O)[C@H](C)NC(=O)C(=C)NC(=O)[C@H](C)NC(=O)[C@H]([C@@H](C)CC)N[C@@H]2C=Cc3c([C@H](C)O)cc(nc3[C@H]2O)C(=O)O[C@@H]4C)n1)C(=O)NC(=CNC(=O)c1cccc(/C=N/OCCO)c1)C(N)=O [RJS-14]	1.4 µg/mL (≈ 0.748 µM)	> 64 mg/L	0.5 mg/L (≈ 0.267 µM)	0.5 mg/L (≈ 0.267 µM)	0.5 mg/L (≈ 0.267 µM)	1 mg/L (≈ 0.534 µM)	0.5 mg/L (≈ 0.267 µM)	0.5 mg/L (≈ 0.267 µM)	0.004 mg/L (≈ 0.00214 µM)	0.004 mg/L (≈ 0.00214 µM)	0.25 to 0.5 mg/L (≈ 0.134 to 0.267 µM)	–	–	–	–	–
C=C(NC(=O)c1csc(C2=N[C@@H]3c4csc(n4)[C@H]4NC(=O)c5csc(n5)[C@H]([C@](C)(O)[C@@H](C)O)NC(=O)C5CSC(=N5)/C(=C/C)NC(=O)[C@H]([C@@H](C)O)NC(=O)c5csc(n5)[C@]3(CC2)NC(=O)[C@H](C)NC(=O)C(=C)NC(=O)[C@H](C)NC(=O)[C@H]([C@@H](C)CC)N[C@@H]2C=Cc3c([C@H](C)O)cc(nc3[C@H]2O)C(=O)O[C@@H]4C)n1)C(=O)NC(=CNC(=O)C(C)C)C(N)=O [RJS-04]	16.2 µg/mL (≈ 9.26 µM)	> 64 mg/L	0.5 mg/L (≈ 0.286 µM)	1 mg/L (≈ 0.571 µM)	0.25 mg/L (≈ 0.143 µM)	1 mg/L (≈ 0.571 µM)	0.5 mg/L (≈ 0.286 µM)	0.5 mg/L (≈ 0.286 µM)	0.004 mg/L (≈ 0.00229 µM)	0.004 mg/L (≈ 0.00229 µM)	0.25 to 0.5 mg/L (≈ 0.143 to 0.286 µM)	–	–	distinct precipitation	–	–
C=C(NC(=O)c1csc(C2=N[C@@H]3c4csc(n4)[C@H]4NC(=O)c5csc(n5)[C@H]([C@](C)(O)[C@@H](C)O)NC(=O)C5CSC(=N5)/C(=C/C)NC(=O)[C@H]([C@@H](C)O)NC(=O)c5csc(n5)[C@]3(CC2)NC(=O)[C@H](C)NC(=O)C(=C)NC(=O)[C@H](C)NC(=O)[C@H]([C@@H](C)CC)N[C@@H]2C=Cc3c([C@H](C)O)cc(nc3[C@H]2O)C(=O)O[C@@H]4C)n1)C(=O)NC(=CNC(=O)c1cccc(/C=N/O)c1)C(N)=O [RJS-17]	< 1 µg/mL	> 64 mg/L	1 mg/L (≈ 0.547 µM)	0.5 mg/L (≈ 0.274 µM)	0.5 mg/L (≈ 0.274 µM)	0.5 mg/L (≈ 0.274 µM)	0.5 mg/L (≈ 0.274 µM)	0.5 mg/L (≈ 0.274 µM)	0.002 mg/L (≈ 0.00109 µM)	0.004 mg/L (≈ 0.00219 µM)	0.25 to 0.5 mg/L (≈ 0.137 to 0.274 µM)	–	–	–	–	distinct precipitation
C=C(NC(=O)c1csc(C2=N[C@@H]3c4csc(n4)[C@H]4NC(=O)c5csc(n5)[C@H]([C@](C)(O)[C@@H](C)O)NC(=O)C5CSC(=N5)/C(=C/C)NC(=O)[C@H]([C@@H](C)O)NC(=O)c5csc(n5)[C@]3(CC2)NC(=O)[C@H](C)NC(=O)C(=C)NC(=O)[C@H](C)NC(=O)[C@H]([C@@H](C)CC)N[C@@H]2C=Cc3c([C@H](C)O)cc(nc3[C@H]2O)C(=O)O[C@@H]4C)n1)C(=O)NC(=CNC(=O)COCCOC)C(N)=O [RJS-10]	19 µg/mL (≈ 10.6 µM)	> 64 mg/L	1 mg/L (≈ 0.557 µM)	1 mg/L (≈ 0.557 µM)	1 mg/L (≈ 0.557 µM)	1 mg/L (≈ 0.557 µM)	1 mg/L (≈ 0.557 µM)	1 mg/L (≈ 0.557 µM)	0.015 mg/L (≈ 0.00835 µM)	0.015 mg/L (≈ 0.00835 µM)	–	–	–	distinct precipitation	–	–
